PubChem BioAssay AID1259411 (Chemical Carcinogenesis Research Information System (CCRIS), 2018)
Calls of active or inactive are those of the source. The rule behind the calls is not given here.

System: rodent carcinogenicity bioassays, tumor incidence
Assay: CCRIS carcinogenicity studies
Conditions: Route: ORAL, Dose: 0, 0.4, Dose: 0, 0.4
Method in brief: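 Archive of carcinogenicity, mutagenicity, tumor promotion and tumor inhibition results drawn from journals, NCI reports and other sources, expert-reviewed; covers 1985-2011 and is no longer updated.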

## CCOc1ccc(NC(C)=O)cc1N
Species: MOUSE, Strain/Sex: B6C3F1/FEMALE, 0.8% OF DIET, 0.8% OF DIET
  carcinogen call: inactive; negative
Species: MOUSE, Strain/Sex: B6C3F1/MALE, 0.8% OF DIET, 0.8% OF DIET, Tumor Site: Type of Lesion: THYROID GLAND: FOLLICULAR CELL ADENOMA, CARCINOMA, ADENOCARCINOMA, ADENOMA, LUNG: ALVEOLAR/BRONCHIOLAR ADENOMA, CARCINOM
  carcinogen call: active; positive
Species: RAT, Strain/Sex: F344/FEMALE, 1.5% OF DIET, 1.5% OF DIET
  carcinogen call: inactive; negative
Species: RAT, Strain/Sex: F344/MALE, 1.5% OF DIET, 1.5% OF DIET
  carcinogen call: inactive; negative
